This test concerns soil urease. Description: Efficacy test: urease inhibition in soil (urea remaining after incubation). Conditions: 800 micrograms test compound and 42.8 mg urea per 20 g air-dry soil, incubated at 25° C. for three days, run in triplicate. It is filed as biochemical. On the procedure: Efficacy tests were conducted to evaluate the efficacy of certain representative oximated O-diaminophosphinyl compounds as urease inhibitors. The inhibition tests were run in a New York soil (Cazenovia silt loam, pH 7.2) or in Wisconsin soil (Plano silt loam, pH 5.4). Evaluations (run in triplicate) consisted of applying 800 micrograms of the test compound in 5 mL of water and 42.8 mg of urea in 1 mL of water to 20 g of air-dry soil in a glass bottle. The bottle was capped with perforated aluminum foil and incubated at 25° C. for three days prior to extraction with 100 mL of a 2M potassium chloride solution containing 0.5 mg of phenylmercuric acetate. The extracts were then analyzed for remaining urea using an autoanalyzer. Percent inhibition was calculated as [formula] where A is urea recovered from unincubated sample (urea added to soil and immediately extracted); B is urea recovered from inhibited sample; and C is urea recovered from the control (uninhibited sample).

`CC(C)=NOP(N)(N)=O` [O--(Diaminophosphinyl)-2-propanone Oxime, O-(Diaminophosphinyl)-2-propanone Oxime]: the “% Inhibition, Cazenovia (pH 7.2)” value (New York soil (Cazenovia silt loam, pH 7.2)) stood at 84%. In addition, where the note is “Wisconsin soil (Plano silt loam, pH 5.4)”, the “% Inhibition, Wisconsin (pH 5.4)” value worked out at 53%.

For the origin of these results see patent US4624695A, “O-diaminophosphinyl derivatives of oximes as urease inhibitors” (Allied Corporation, priority 1983, dated 1986).
